Where “and” joins values, the source holds several entries; their conditions need not be identical. Identical values can stand only once. Inconclusive results and toxic doses are left out. How the source made its calls: active means survival T/C of 150% or more; inactive means T/C below 125% in these data.
Tested on: CD2F1 mice, L1210 leukemia ip, survival T/C
Experiment: NCI In Vivo Anticancer Drug Screen. Data for tumor model L1210 Leukemia (intraperitoneal) in CD2F1 (CDF1) mice
Conditions: higher = longer survival
In short: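 Transplantable tumor in mice; compound-treated vs vehicle-treated groups. Read-out = treated/control ratio of the measured endpoint.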

[1] = endpoint: mean survival time, dose: 75.0 mg/kg/injection, schedule: Q01DX001 (ip), vehicle: saline
[2] = endpoint: mean survival time, dose: 100.0 mg/kg/injection, schedule: Q04DX003 (ip), vehicle: saline
[3] = endpoint: mean survival time, dose: 200.0 mg/kg/injection, schedule: Q04DX003 (ip), vehicle: saline
[4] = endpoint: mean survival time, dose: 400.0 mg/kg/injection, schedule: Q04DX003 (ip), vehicle: saline
[5] = endpoint: mean survival time, dose: 100.0 mg/kg/injection, schedule: Q01DX009 (ip), vehicle: saline with Tween-80
[6] = endpoint: mean survival time, dose: 200.0 mg/kg/injection, schedule: Q01DX009 (ip), vehicle: saline with Tween-80
[7] = endpoint: mean survival time, dose: 400.0 mg/kg/injection, schedule: Q01DX009 (ip), vehicle: saline with Tween-80
[8] = endpoint: mean survival time, dose: 100.0 mg/kg/injection, schedule: Q04DX003 (ip), vehicle: saline with Tween-80
[9] = endpoint: mean survival time, dose: 200.0 mg/kg/injection, schedule: Q04DX003 (ip), vehicle: saline with Tween-80
[10] = endpoint: mean survival time, dose: 100.0 mg/kg/injection, schedule: Q01DX001 (ip), vehicle: saline with Tween-80
[11] = endpoint: mean survival time, dose: 400.0 mg/kg/injection, schedule: Q01DX001 (ip), vehicle: saline with Tween-80
[12] = endpoint: mean survival time, dose: 100.0 mg/kg/injection, schedule: Q01DX009 (ip), vehicle: saline
[13] = endpoint: mean survival time, dose: 200.0 mg/kg/injection, schedule: Q01DX009 (ip), vehicle: saline
[14] = endpoint: mean survival time, dose: 400.0 mg/kg/injection, schedule: Q01DX009 (ip), vehicle: saline
[15] = endpoint: mean survival time, dose: 50.0 mg/kg/injection, schedule: Q01DX009 (ip), vehicle: saline with Tween-80
[16] = endpoint: mean survival time, dose: 50.0 mg/kg/injection, schedule: Q01DX009 (ip), vehicle: Klucel (hydroxypropylcellulose) (HPC)
[17] = endpoint: mean survival time, dose: 100.0 mg/kg/injection, schedule: Q01DX009 (ip), vehicle: Klucel (hydroxypropylcellulose) (HPC)
[18] = endpoint: mean survival time, dose: 400.0 mg/kg/injection, schedule: Q04DX003 (ip), vehicle: saline with Tween-80

Measured: T/C

CNC(=O)Oc1ccc(N)cc1
inactive: [1] 102 % of control

CN(C)N=Nc1ccc(C(=O)N/N=C/c2ccc([N+](=O)[O-])cc2)cc1
inactive: [2] 97 % of control | [3] 93 % of control | [4] 93 % of control

O=C(/C(=N\N=C\c1c(O)ccc2ccccc12)c1ccccc1)c1ccccc1
inactive: [5] 93 % of control | [6] 90 % of control | [7] 92 % of control

O=C(O)c1c2c(nc3ccccc13)-c1cccc3c1N(CCC3)C2
inactive: endpoint: mean survival time, dose: 6.25 mg/kg/injection, schedule: Q01DX009 (ip), vehicle: other 100 % of control | endpoint: mean survival time, dose: 12.5 mg/kg/injection, schedule: Q01DX009 (ip), vehicle: other 103 % of control | endpoint: mean survival time, dose: 25.0 mg/kg/injection, schedule: Q01DX009 (ip), vehicle: other 103 % of control | endpoint: mean survival time, dose: 50.0 mg/kg/injection, schedule: Q01DX009 (ip), vehicle: other 100 % of control | endpoint: mean survival time, dose: 100.0 mg/kg/injection, schedule: Q01DX001 (ip), vehicle: other 100 % of control | endpoint: mean survival time, dose: 200.0 mg/kg/injection, schedule: Q01DX001 (ip), vehicle: other 97 % of control | endpoint: mean survival time, dose: 400.0 mg/kg/injection, schedule: Q01DX001 (ip), vehicle: other 97 % of control

N#C[S-].N#C[S-].[Au+3].[Au+3].[CH3-].[CH3-].[CH3-].[CH3-]
inactive: [8] 96 % of control | [9] 98 % of control

NNC(=O)CC(O)(C1CC1)C1CC1
inactive: endpoint: mean survival time, dose: 100.0 mg/kg/injection, schedule: Q04DX002 (ip), vehicle: saline 112 % of control | endpoint: mean survival time, dose: 200.0 mg/kg/injection, schedule: Q04DX002 (ip), vehicle: saline 96 % of control | endpoint: mean survival time, dose: 400.0 mg/kg/injection, schedule: Q04DX002 (ip), vehicle: saline 100 % of control

O=c1[nH][nH]c(=O)c2c1oc1c(=O)[nH][nH]c(=O)c12
inactive: endpoint: mean survival time, dose: 25.0 mg/kg/injection, schedule: Q01DX001 (ip), vehicle: saline with Tween-80 104 % of control | endpoint: mean survival time, dose: 50.0 mg/kg/injection, schedule: Q01DX001 (ip), vehicle: saline with Tween-80 92 % of control

O=C(NCCBr)Nc1ccccc1
inactive: endpoint: mean survival time, dose: 12.5 mg/kg/injection, schedule: Q04DX002 (ip), vehicle: Klucel (hydroxypropylcellulose) (HPC) 92 % of control | endpoint: mean survival time, dose: 25.0 mg/kg/injection, schedule: Q04DX002 (ip), vehicle: Klucel (hydroxypropylcellulose) (HPC) 92 % of control | endpoint: mean survival time, dose: 50.0 mg/kg/injection, schedule: Q04DX002 (ip), vehicle: Klucel (hydroxypropylcellulose) (HPC) 96 % of control

CCC1CC(=O)C2Nc3ccccc3C2C1 (configuration not stated)
inactive: [10] 88 % of control | [11] 86 % of control

C=CCNC(=O)c1ccc[n+](CC(=O)Nc2ccccc2)c1
inactive: [8] 103 % of control

O=C(O)C(O)C(O)C(O)CO.[Zn+2] (configuration not stated)
inactive: endpoint: mean survival time, dose: 6.25 mg/kg/injection, schedule: Q01DX005 (ip), vehicle: saline with Tween-80 108 % of control | endpoint: mean survival time, dose: 12.5 mg/kg/injection, schedule: Q01DX005 (ip), vehicle: saline with Tween-80 108 % of control | endpoint: mean survival time, dose: 12.5 mg/kg/injection, schedule: Q04DX003 (ip), vehicle: saline 95 % of control | endpoint: mean survival time, dose: 25.0 mg/kg/injection, schedule: Q01DX005 (ip), vehicle: saline with Tween-80 103 % of control | endpoint: mean survival time, dose: 25.0 mg/kg/injection, schedule: Q04DX003 (ip), vehicle: saline 95 % of control | endpoint: mean survival time, dose: 50.0 mg/kg/injection, schedule: Q04DX003 (ip), vehicle: saline 101 % of control

CN1C2CCC1C(Br)C(=O)C2 (configuration not stated)
inactive: endpoint: median survival time, dose: 25.0 mg/kg/injection, schedule: Q01DX009 (ip), vehicle: saline 102 % of control | endpoint: median survival time, dose: 50.0 mg/kg/injection, schedule: Q01DX009 (ip), vehicle: saline 105 % of control | endpoint: median survival time, dose: 100.0 mg/kg/injection, schedule: Q01DX009 (ip), vehicle: saline 105 % of control | endpoint: median survival time, dose: 200.0 mg/kg/injection, schedule: Q01DX009 (ip), vehicle: saline 101 % of control

CN(C)C(CCN1CCCCC1)CN1CCCCC1 (configuration not stated)
inactive: [12] 101 % of control | [2] 101 % of control | [13] 98 % of control | [3] 101 % of control | [14] 102 % of control | [4] 98 % of control

CCCCOC(=O)c1ccccn1
inactive: [15] 101 % of control | [5] 95 % of control | [6] 98 % of control

COc1cc(NCCCCNC(C)C)c2ncccc2c1
inactive: [1] 95 % of control

CCCC(=O)OCc1cc(=O)n(C)c2c3c4c(cc12)c(C)cc(=O)n4CO3
inactive: endpoint: mean survival time, dose: 1.56 mg/kg/injection, schedule: Q01DX009 (ip), vehicle: Klucel (hydroxypropylcellulose) (HPC) 97 % of control | endpoint: mean survival time, dose: 3.12 mg/kg/injection, schedule: Q01DX009 (ip), vehicle: Klucel (hydroxypropylcellulose) (HPC) 106 % of control and 112 % of control | endpoint: mean survival time, dose: 6.25 mg/kg/injection, schedule: Q01DX009 (ip), vehicle: Klucel (hydroxypropylcellulose) (HPC) 116 % of control and 105 % of control and 109 % of control | endpoint: mean survival time, dose: 12.5 mg/kg/injection, schedule: Q01DX009 (ip), vehicle: Klucel (hydroxypropylcellulose) (HPC) 113 % of control and 107 % of control and 110 % of control | endpoint: mean survival time, dose: 25.0 mg/kg/injection, schedule: Q01DX009 (ip), vehicle: Klucel (hydroxypropylcellulose) (HPC) 117 % of control and 119 % of control and 124 % of control | [16] 118 % of control and 124 % of control | [17] 96 % of control

O=C(/C=C/c1ccc(Cl)c(Cl)c1)c1ccccc1
inactive: [16] 105 % of control | [17] 98 % of control

N#CCCOCCC#N
inactive: [12] 100 % of control | [13] 98 % of control | [14] 102 % of control

Cc1cc(C)c(C)c(C(O)(C(=O)O)c2ccccc2)c1 (configuration not stated)
inactive: [5] 100 % of control | [8] 97 % of control | [6] 88 % of control | [9] 101 % of control | [7] 96 % of control | [18] 92 % of control

ClCc1ccc(CCl)cc1
inactive: endpoint: mean survival time, dose: 25.0 mg/kg/injection, schedule: Q04DX003 (ip), vehicle: Klucel (hydroxypropylcellulose) (HPC) 98 % of control | endpoint: mean survival time, dose: 50.0 mg/kg/injection, schedule: Q04DX003 (ip), vehicle: Klucel (hydroxypropylcellulose) (HPC) 105 % of control | endpoint: mean survival time, dose: 100.0 mg/kg/injection, schedule: Q04DX003 (ip), vehicle: Klucel (hydroxypropylcellulose) (HPC) 89 % of control

Oc1ccc(C(O)(c2ccccc2)c2ccc(O)c3ccccc23)c2ccccc12
inactive: [8] 102 % of control | [9] 96 % of control | [18] 103 % of control

Cc1cccc(CCF)c1
inactive: [10] 110 % of control | endpoint: mean survival time, dose: 200.0 mg/kg/injection, schedule: Q01DX001 (ip), vehicle: saline with Tween-80 107 % of control | [11] 98 % of control

NC(=O)N/N=C/c1ccc([N+](=O)[O-])s1
inactive: [8] 97 % of control | [9] 99 % of control | [18] 106 % of control

c1ccc([P+](c2ccccc2)(c2ccccc2)C2CCC2)cc1
inactive: endpoint: mean survival time, dose: 9.4 mg/kg/injection, schedule: Q04DX003 (ip), vehicle: saline 97 % of control | endpoint: mean survival time, dose: 18.8 mg/kg/injection, schedule: Q04DX003 (ip), vehicle: saline 102 % of control | endpoint: mean survival time, dose: 37.5 mg/kg/injection, schedule: Q04DX003 (ip), vehicle: saline 102 % of control

CCCC(CCC)=NN=C(CCC)CCC
inactive: endpoint: mean survival time, dose: 25.0 mg/kg/injection, schedule: Q01DX005 (ip), vehicle: saline 97 % of control | endpoint: mean survival time, dose: 25.0 mg/kg/injection, schedule: Q01DX009 (ip), vehicle: saline with Tween-80 95 % of control | endpoint: mean survival time, dose: 50.0 mg/kg/injection, schedule: Q01DX005 (ip), vehicle: saline 97 % of control | [15] 106 % of control | endpoint: mean survival time, dose: 50.0 mg/kg/injection, schedule: Q04DX002 (ip), vehicle: saline + alcohol 95 % of control | endpoint: mean survival time, dose: 100.0 mg/kg/injection, schedule: Q01DX005 (ip), vehicle: saline 105 % of control | [5] 91 % of control | endpoint: mean survival time, dose: 100.0 mg/kg/injection, schedule: Q04DX002 (ip), vehicle: saline + alcohol 92 % of control | endpoint: mean survival time, dose: 200.0 mg/kg/injection, schedule: Q01DX005 (ip), vehicle: saline 97 % of control | [6] 93 % of control | endpoint: mean survival time, dose: 200.0 mg/kg/injection, schedule: Q04DX002 (ip), vehicle: saline + alcohol 88 % of control

CC(=O)N(CCCCCCN(N=O)C(C)=O)N=O
inactive: [1] 110 % of control | endpoint: mean survival time, dose: 150.0 mg/kg/injection, schedule: Q01DX001 (ip), vehicle: saline 122 % of control | endpoint: mean survival time, dose: 300.0 mg/kg/injection, schedule: Q01DX001 (ip), vehicle: saline 116 % of control

O=c1nc(OCCO)c([N+](=O)[O-])c(C(Cl)(Cl)Cl)[nH]1
inactive: [8] 96 % of control | [9] 97 % of control | [18] 89 % of control

Source: PubChem BioAssay AID256 (DTP/NCI, 2004)
